Laboratory results as given in publication PMC10531346, “Structural Similarities and Overlapping Activities among Dihydroflavonol 4-Reductase, Flavanone 4-Reductase, and Anthocyanidin Reductase Offer Metabolic Flexibility in the Flavonoid Pathway” (International Journal of Molecular Sciences, 2023).
Values joined by “and” are separate entries in the source; they are usually repeats but may differ in a detail not shown here. Identical values can stand only once. Like-named read-outs stand apart in the source and are kept apart here.

Tests used:
[1] = system: SbANR; experiment: SbANR activity assay (dihydroflavonols, flavanones, anthocyanidins); type: biochemical, Sorghum bicolor; conditions: in words
[2] = target: SbDFR3 (Sorghum bicolor, UniProt C5XVF8); experiment: Enzyme kinetic assay, SbDFR3; conditions: NADPH 2 mM
Description: (§1) Kinetic Assays of PvDFRa, SbDFR3, mutant PvDFRa, and SbFNRs: DFR was purified to the same purity as used in crystallization. Enzymatic assay followed the methodology previously reported with small changes. A solution of 0.1 M potassium phosphate at pH 7.0 was utilized, and substrate concentration was varied from 5 µM to 800 µM. The reaction was initiated with 0.05 mg enzyme in a total reaction volume of 200 µL. […] The reaction proceeded for 15 min. at 25 °C and was terminated by the addition of 600 µL 95:5 (v/v) n-butanol:HCl. […] The reactions were centrifuged for 15 min. at 14,000× g and the supernatant was used to determine product concentrations with a GENESYS™ 10S UV-Vis Spectrophotometer (Thermo Scientific, Waltham, MA, USA). The absorbances of cyanidin delphinidin and pelargonidin were measured at 550, 550, and 528 nm, respectively. The concentrations were determined based on calibrations with reference compounds (Figure S12). […] Data analysis was conducted utilizing GraphPad Prism 8.0.2 using linear regression to model the appropriate model. Error in each data point is shown utilizing the standard deviation.

[3] = target: PvDFRa WT (Panicum virgatum, UniProt A0A8T0SQV2); experiment: Enzyme kinetic assay, wild-type PvDFRa; type: biochemical; conditions: for substrate inhibition at higher substrate concentrations: KI much greater than Km, could not be quantified
Description: as §1

[4] = system: SbFNR2; experiment: SbFNR2 activity assay (dihydroflavonols, flavanones, anthocyanidins); type: biochemical, Sorghum bicolor; conditions: for activity of SbFNR2 against the substrate: in words
[5] = target: T1, PvDFRa (Panicum virgatum, UniProt A0A8T0SQV2); experiment: Isothermal titration calorimetry, PvDFRa; type: binding; conditions: for ∆H / ∆S: ITC, 298 K
Description: In order to obtain thermodynamic parameters for the association, isothermal titration calorimetry (ITC) for PvDFRa was performed (Figure S8, Table 2).
Isothermal Titration Calorimetry: Purified PvDFR was dialyzed to a buffer containing 50 mM Bis-Tris, 50 mM Tricine (pH 6.5), 200 mM NaCl and 2.5% (v/v) glycerol. Substrates were dissolved in the same buffer used for enzyme dialysis. Analysis was conducted utilizing a Microcal ITC 200 (Malvern). […] A total of 22 injections were made, each with a volume of 2 uL. Data analysis was conducted utilizing Origin Software 7 and modeled to the appropriate nonlinear regression.

[6] = target: PvDFRa T143S (Panicum virgatum, UniProt A0A8T0SQV2, T143S); experiment: Enzyme kinetic assay, PvDFRa T143S mutant; type: biochemical; conditions: relative to wild-type PvDFRa
Description: (§2) Site-directed mutagenesis was conducted using primers generated with the QuikChange Primer Design (Agilent Santa Clara, CA USA).
as §1

[7] = target: SbFNR1 (Sorghum bicolor, UniProt C5YGL7); experiment: SbFNR1 activity assay (dihydroflavonols, flavanones, anthocyanidins); type: biochemical; conditions: for activity of SbFNR1 against the substrate: in words; for product yield compared to PvDFRa and SbDFR3: flavanones, long incubation
[8] = target: PvDFRa Q242A (Panicum virgatum, UniProt A0A8T0SQV2, Q242A); experiment: Enzyme kinetic assay, PvDFRa Q242A mutant; type: biochemical; conditions: for kcat: NADPH 2 mM
Description: as §2, §1

[9] = target: T1, PvDFRa; type: biochemical
Description: The referenced Vmax and Km values were used to make a nonlinear regression. […] Five µL of the reaction was injected into a reversed-phase HPLC column XBridge Peptide BEH C18 (Waters, Milford, MA, USA). Acetonitrile:water was used as the mobile phase, using a gradient in the concentration of acetonitrile from 5% (v/v) to 100%.

[10] = system: O=C1c2c(O)cc(O)cc2O[C@H](c2cc(O)c(O)c(O)c2)[C@H]1O; experiment: purified protein, by the assay type; conditions: other: NADPH 2 mM
[11] = system: O=C1c2c(O)cc(O)cc2OC(c2ccc(O)c(O)c2)[C@H]1O; experiment: purified protein, by the assay type; conditions: other: NADPH 2 mM
[12] = system: O=C1c2c(O)cc(O)cc2O[C@H](c2ccc(O)cc2)[C@H]1O; experiment: purified protein, by the assay type; conditions: other: NADPH 2 mM
[13] = system: O=C1C[C@@H](c2ccc(O)cc2)Oc2cc(O)cc(O)c21; experiment: purified protein, by the assay type; conditions: other: NADPH 2 mM

Compound: O=C1c2c(O)cc(O)cc2O[C@H](c2ccc(O)cc2)[C@H]1O [DHK, dihydrokaempferol]
- activity of SbANR against the substrate [1]: no significant activity
- Km [2]: 118 ± 22.6 µM
- kcat [2]: 0.0101 s⁻¹ and 0.0101 ± 0.00852 s⁻¹
- substrate inhibition at higher substrate concentrations [3]: substrate inhibition was observed
- activity of SbFNR2 against the substrate [4]: no significant activity
- Kd [5]: 26.4 ± 2.26 µM
- ∆H [5]: -6.19 ± 5.54 kcal/mol
- ∆S [5]: 0.854 Cal mol^−1 K^−1
- increased catalytic efficiency of T143S mutant [6]: 1.09 fold
- activity of SbFNR1 against the substrate [7]: no significant activity
- kcat [8]: 0.007835 s⁻¹
- higher catalytic efficiency of Q242A mutant ([8]; relative to wild-type PvDFRa): 1.7 fold

Compound: O=C1c2c(O)cc(O)cc2O[C@H](c2cc(O)c(O)c(O)c2)[C@H]1O [DHM, dihydromyricetin]
- activity of SbANR against the substrate [1]: no significant activity
- kcat [2]: 0.07733 s⁻¹
- substrate inhibition at higher substrate concentrations [3]: substrate inhibition was observed
- activity of SbFNR2 against the substrate [4]: no significant activity
- Kd [5]: 21.2 ± 3.26 µM
- ∆H [5]: -9.10 ± 2.45 kcal/mol
- ∆S [5]: −9.14 Cal mol^−1 K^−1
- activity of SbFNR1 against the substrate [7]: no significant activity
- kcat [8]: 0.03788 s⁻¹

Compound: O=C1c2c(O)cc(O)cc2O[C@H](c2ccc(O)c(O)c2)[C@H]1O [DHQ, dihydroquercetin]
- activity of SbANR against the substrate [1]: no significant activity
- kcat [2]: 0.06325 s⁻¹
- substrate inhibition at higher substrate concentrations [3]: substrate inhibition was observed
- activity of SbFNR2 against the substrate [4]: no significant activity
- Kd [5]: 16.9 ± 4.35 µM
- ∆H [5]: -10.77 ± 0.18 kcal/mol
- ∆S [5]: −13.7 Cal mol^−1 K^−1
- increased catalytic efficiency of T143S mutant [6]: 3.53 fold
- activity of SbFNR1 against the substrate [7]: no significant activity
- kcat [8]: 0.04285 s⁻¹

Compound: O=C1C[C@@H](c2ccc(O)c(O)c2)Oc2cc(O)cc(O)c21 [Eriodictyol, eriodictyol]
- activity of SbANR against the substrate [1]: did not display any activity
- Km [2]: 40.7 ± 31.9 µM
- kcat [2]: 0.00206 ± 0.000183 s⁻¹
- Km ([2]; read-out: Km): 25.2 µM
- substrate inhibition at higher substrate concentrations [3]: substrate inhibition occurred
- kcat for flavanones, given for PvDFRa ([3]; NADPH 2 mM): 0.00206 s⁻¹
- Km ([3]; NADPH 2 mM, pH 7.0, 25 °C): 246 ± 224 µM
- kcat ([3]; NADPH 2 mM, pH 7.0, 25 °C): 0.01414 ± 0.00932 s⁻¹
- kcat ([3]; NADPH 2 mM, pH 7.0, 25 °C, listed as eriodictyol): 0.01414 s⁻¹
- activity of SbFNR2 against the substrate [4]: did not display any activity
- Kd [5]: 64.9 ± 11.8 µM
- ∆H [5]: -6.23 ± 0.28 kcal/mol
- ∆S [5]: −1.74 Cal mol^−1 K^−1
- product yield compared to PvDFRa and SbDFR3 [7]: ~ 3%

Compound: O=C1C[C@@H](c2ccc(O)cc2)Oc2cc(O)cc(O)c21 [Naringenin, naringenin]
- activity of SbANR against the substrate [1]: did not display any activity
- substrate inhibition at higher substrate concentrations [3]: substrate inhibition occurred
- kcat for flavanones, given for PvDFRa ([3]; NADPH 2 mM): 0.03473 s⁻¹
- kcat ([3]; NADPH 2 mM, pH 7.0, 25 °C): 0.05915 s⁻¹
- activity of SbFNR2 against the substrate [4]: did not display any activity
- Kd [5]: 177 ± 25.3 µM
- ∆H [5]: -4.82 ± 0.39 kcal/mol
- ∆S [5]: 0.986 Cal mol^−1 K^−1
- product yield compared to PvDFRa and SbDFR3 [7]: ~ 3%

Compound: Oc1cc(O)c2cc(O)c(-c3cc(O)c(O)c(O)c3)[o+]c2c1 [delphinidin]
- activity of SbANR against the substrate [1]: showed activity
- activity of SbFNR2 against the substrate [4]: neither SbFNR1 nor SbFNR2 displayed any activity
- activity of SbFNR1 against the substrate [7]: neither SbFNR1 nor SbFNR2 displayed any activity

Compound: Oc1ccc([C@H]2Oc3cc(O)cc(O)c3C[C@H]2O)cc1 [epiafzelchin]
- efficiency relative to the activity of SbANR ([4]; anthocyanidin reduction): 43%

Compound: O=c1c(O)c(-c2ccc(O)c(O)c2)oc2cc(O)cc(O)c12 [quercetin]
- substrate of PvDFRa or not ([9]; 500 µM quercetin, 2 mM NADPH, 30 min, HPLC): not a substrate
- type of inhibition of PvDFRa ([9]; DHM as substrate): noncompetitive inhibition
- Vmax ([9]; DHM as substrate, 75 μM quercetin): 4.193 min⁻¹
- Vmax ([9]; DHM as substrate, 150 μM quercetin): 3.545 min⁻¹

Compound: NADH
- enzyme efficiency with NADH relative to NADPH ([3]; NADH utilized instead of NADPH): 60.55%

Compound: PvDFRa Q242A (Panicum virgatum; Q242A)
- Km ([10]; pH 7.0): 119.2 ± 87.86 µM
- kcat ([10]; pH 7.0): 0.0379 s⁻¹
- kcat/Km ([10]; pH 7.0): 318 M⁻¹ s⁻¹
- Km ([11]; pH 7.0): 156.8 ± 121.41 µM
- kcat ([11]; pH 7.0): 0.0428 s⁻¹
- kcat/Km ([11]; pH 7.0): 273 M⁻¹ s⁻¹
- Km ([12]; pH 7.0): 74.59 ± 62.70 µM
- kcat ([12]; pH 7.0): 0.00783 s⁻¹
- kcat/Km ([12]; pH 7.0): 105 M⁻¹ s⁻¹

Compound: PvDFRa T143S (Panicum virgatum; T143S)
- Km ([10]; pH 7.0): 7.409 ± 0.2465 µM
- kcat ([10]; pH 7.0): 0.0176 s⁻¹
- kcat/Km ([10]; pH 7.0): 2380 M⁻¹ s⁻¹
- Km ([11]; pH 7.0): 19.04 ± 11.21 µM
- kcat ([11]; pH 7.0): 0.0293 s⁻¹
- kcat/Km ([11]; pH 7.0): 1540 M⁻¹ s⁻¹
- Km ([12]; pH 7.0): 137.7 ± 36.00 µM
- kcat ([12]; pH 7.0): 0.00956 s⁻¹
- kcat/Km ([12]; pH 7.0): 69.3 M⁻¹ s⁻¹

Compound: PvDFRa WT (Panicum virgatum)
- Km ([10]; pH 7.0, 25 °C, 25.0 °C): 150.0 ± 56.9 µM
- kcat ([10]; pH 7.0, 25 °C, 25.0 °C): 0.0377 s⁻¹
- kcat/Km ([10]; pH 7.0, 25 °C, 25.0 °C): 251 M⁻¹ s⁻¹
- Km ([11]; pH 7.0, 25 °C, 25.0 °C): 128.6 ± 14.3 µM
- kcat ([11]; pH 7.0, 25 °C, 25.0 °C): 0.0559 s⁻¹
- kcat/Km ([11]; pH 7.0, 25 °C, 25.0 °C): 435 M⁻¹ s⁻¹
- Km ([13]; pH 7.0, 25 °C, 25.0 °C): 407.6 ± 223.6 µM
- kcat ([13]; pH 7.0, 25 °C, 25.0 °C): 0.0592 s⁻¹
- kcat/Km ([13]; pH 7.0, 25 °C, 25.0 °C): 145 M⁻¹ s⁻¹
- kcat ([12]; pH 7.0, 25 °C, 25.0 °C): 0.0121 s⁻¹
- kcat/Km ([12]; pH 7.0, 25 °C, 25.0 °C): 63.2 M⁻¹ s⁻¹

Compound: SbDFR3 (Sorghum bicolor)
- Km ([10]; pH 7.0): 118.5 ± 0.2885 µM
- kcat ([10]; pH 7.0): 0.0773 s⁻¹
- kcat/Km ([10]; pH 7.0): 653 M⁻¹ s⁻¹
- Km ([11]; pH 7.0): 166.4 ± 28.8 µM
- kcat ([11]; pH 7.0): 0.0633 s⁻¹
- kcat/Km ([11]; pH 7.0): 380 M⁻¹ s⁻¹
- Km ([13]; pH 7.0): 118.2 ± 14.92 µM
- kcat ([13]; pH 7.0): 0.0347 ± 0.00145 s⁻¹
- kcat/Km ([13]; pH 7.0): 294 M⁻¹ s⁻¹
